For 22 molecules, inhibition and IC50 results are on record in ChEMBL document CHEMBL1138616, “Molecular design, synthesis and docking study of benz[b]oxepines and 12-oxobenzo[c]phenanthridinones as topoisomerase 1 inhibitors” (Bioorg Med Chem Lett, 2009).

Test [1] has as its target T1, DNA topoisomerase 1 (Homo sapiens) (UniProt P11387).
T1 sequence (whole entry): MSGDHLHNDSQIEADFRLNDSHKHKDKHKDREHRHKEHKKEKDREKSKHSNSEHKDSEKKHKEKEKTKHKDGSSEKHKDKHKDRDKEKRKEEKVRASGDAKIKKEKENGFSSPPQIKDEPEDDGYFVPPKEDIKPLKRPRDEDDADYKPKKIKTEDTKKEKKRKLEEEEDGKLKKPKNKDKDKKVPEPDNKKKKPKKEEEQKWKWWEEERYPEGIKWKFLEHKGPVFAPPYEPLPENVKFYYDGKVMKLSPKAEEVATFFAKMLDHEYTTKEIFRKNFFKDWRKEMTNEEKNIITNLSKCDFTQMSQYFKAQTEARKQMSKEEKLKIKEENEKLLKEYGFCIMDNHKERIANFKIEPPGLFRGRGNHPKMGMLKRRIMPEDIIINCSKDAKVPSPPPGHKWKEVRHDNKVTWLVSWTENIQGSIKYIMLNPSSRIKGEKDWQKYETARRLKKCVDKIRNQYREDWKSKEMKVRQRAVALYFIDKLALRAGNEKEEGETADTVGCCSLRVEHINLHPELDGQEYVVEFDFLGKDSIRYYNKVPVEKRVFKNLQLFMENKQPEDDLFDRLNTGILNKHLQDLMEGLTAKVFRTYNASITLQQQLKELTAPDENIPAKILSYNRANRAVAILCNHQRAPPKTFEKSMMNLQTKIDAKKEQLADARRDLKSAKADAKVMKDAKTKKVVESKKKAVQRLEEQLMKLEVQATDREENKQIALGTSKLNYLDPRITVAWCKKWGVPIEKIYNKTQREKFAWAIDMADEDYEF
The experiment in a line: Inhibition of DNA topoisomerase 1 assessed as relaxation of supercoiled Escherichia coli pBR322 DNA at 100 uM.

The test system of another test is A549. The experiment in a line: Cytotoxicity against human A549 cells by sulforhodamine B assay. Format: functional, cell-based. In general terms: Sulforhodamine B stains cellular protein and so reports cell mass.
Another test concerns HeLa. The experiment in a line: Cytotoxicity against human HeLa cells by sulforhodamine B assay. Format: functional, cell-based.
A further test relates to HL-60. The experiment in a line: Cytotoxicity against human HL60 cells by sulforhodamine B assay. Format: functional, cell-based.

The source made the active and inactive calls. The calls are words filed in the database; no cut-off is given here.

In the case of `Cc1ccc2c3c(n(C)c(=O)c2c1)-c1ccccc1OC3C` (stereo unspecified), the inhibition – broadly, the change of the read-out against control, counted positive when it falls – in test [1] is “inactive”. The figures for the IC50 in the test with A549 and in the test on HeLa were 66.9 µM and 21.9 µM, respectively.
As to `C=COc1ccccc1-c1c(Br)c2ccccc2c(=O)n1Cc1ccc(OC)cc1`, the inhibition entry in test [1] was “inactive”. Further, the IC50 (commonly the concentration that inhibits the measured activity by half) with A549 is more than 100 µM; in the test on HL-60, 59.5 µM; with HeLa, 36.5 µM.
Taken in the same sequence, the figures for `COc1ccc(Cn2c3c(c4ccccc4c2=O)CCOc2ccccc2-3)cc1` were 94.5%, 11 µM, 4.49 µM and 4.78 µM.
Taken in the same sequence, the figures for `C=COc1ccccc1-c1c(Br)c2cc(C)ccc2c(=O)n1Cc1ccc(OC)cc1` were “inactive”, 67.8 µM, 29.2 µM and 14.8 µM.
For `COc1cc2c3c(n(C)c(=O)c2cc1OC)-c1ccccc1OCC3`, in that order: 98.2%, 73 µM, 34.8 µM and 38.1 µM.
Take `COCOc1ccccc1-c1c(Br)c2ccc(C)cc2c(=O)n1C`: the inhibition result in test [1] is “inactive”. Also, the IC50 in the test with A549 turned out to be 82 µM; in the test with HL-60, 17.2 µM; with HeLa, 17.8 µM.
Taken in the same sequence, the figures for `COc1cc2c3c(n(C)c(=O)c2cc1OC)-c1ccccc1OC3C` (stereo unspecified) were 5.3%, 13.8 µM, 8.54 µM and 9.02 µM.
For `COc1ccc(Cn2c3c(c4ccc(C)cc4c2=O)CCOc2ccccc2-3)cc1`, in that order: “inactive”, 4.56 µM, 4.4 µM and 4.54 µM.
Taken in the same sequence, the figures for `COc1ccc(Cn2c3c(c4cc(C)ccc4c2=O)CCOc2ccccc2-3)cc1` were “inactive”, more than 100 µM, 9.26 µM and 10.3 µM.
As to `COCOc1ccccc1-c1cc2ccccc2c(=O)n1C`, the inhibition result in test [1] was “inactive”. Further, the figures for the IC50 in the test on A549, in the test with HL-60 and with HeLa were more than 100 µM, 59.5 µM and 64.6 µM, respectively.
On to `COc1ccc(Cn2c(-c3ccccc3O)c(Br)c3cc(C)ccc3c2=O)cc1`, for which the inhibition entry in test [1] was “inactive”. Moreover, the IC50 with A549 stood at 53 µM; in the test on HL-60, 24.4 µM; with HeLa, 20.4 µM.
Taken in the same sequence, the figures for `COCOc1ccccc1-c1c(Br)c2cc(OC)c(OC)cc2c(=O)n1C` were 40.7%, more than 100 µM, 37.8 µM and 99.3 µM.
Consider `CC[C@@]1(O)C(=O)OCc2c1cc1n(c2=O)Cc2cc3ccccc3nc2-1` [CAMPTOTHECIN], for which the IC50 was determined as 0.058 µM in the test with A549, 0.089 µM in the test on HL-60 and 0.072 µM with HeLa.
With `COCOc1ccccc1-c1cc2ccccc2c(=O)[nH]1`, the inhibition entry in test [1] is “inactive”. Moreover, the IC50 in the test on A549 was 23.6 µM; in the test on HL-60 it was 0.62 µM; in the test with HeLa it was 0.62 µM.
Regarding `Cn1c2c(c3ccccc3c1=O)CCOc1ccccc1-2`, the inhibition result in test [1] was “inactive”. Moreover, the results for the IC50 in the test with A549, in the test on HL-60 and with HeLa were 66.8 µM, 37.6 µM and 19.7 µM, respectively.
For `COCOc1ccccc1-c1cc2cc(C)ccc2c(=O)n1C`, in that order: “inactive”, 99.8 µM, 14.3 µM and 28.6 µM.
For `Cc1ccc2c(=O)n(C)c3c(c2c1)CCOc1ccccc1-3`, in that order: “inactive”, 61.3 µM, 33.6 µM and 41.6 µM.
`Cc1ccc2c3c(n(C)c(=O)c2c1)-c1ccccc1OCC3`: the inhibition in test [1] is 11.9%. For the same molecule, the IC50 in the test on A549 came to 30.3 µM; with HL-60 it was 14.1 µM; with HeLa, 8.76 µM.
For `CC1Oc2ccccc2-c2c1c1ccccc1c(=O)n2C` (stereo unspecified), in that order: “inactive”, 65.5 µM, 30.1 µM and 40.1 µM.
For `COc1ccc(Cn2c(-c3ccccc3O)c(Br)c3ccccc3c2=O)cc1`, in that order: “inactive”, 71.2 µM, 31.6 µM and 36.8 µM.
Consider `Cc1ccc2c(=O)n(C)c3c(c2c1)C(C)Oc1ccccc1-3` (stereo unspecified), for which the inhibition in test [1] came out at 30.4%. In addition, the results for the IC50 with A549, in the test on HL-60 and in the test on HeLa were 46 µM, 29.1 µM and 28.3 µM, respectively.
For `COCOc1ccccc1-c1cc2cc(C)ccc2c(=O)[nH]1`, in that order: “inactive”, more than 100 µM, 0.16 µM and 0.17 µM.
